Reference: patent publication US9072791B2, “Photostabilized pharmaceutical compositions” (DENKI KAGAKU KOGYO KABUSHIKI KAISHA, priority 2008, dated 2015)
“And” between values parts separate entries of the source, which are not always exact repeats. Equal values may be shown once. Read-outs that look alike come from different tables or passages of the source.

Experiments:
[1] = Photostability test in glass vials not shielded from light: gelation, molecular weight, percent conjugation of MTX (Example 4(2)); format: physicochemical
Protocol: Various photostabilizers (methyl p-hydroxybenzoate (methyl paraben), salicylic acid Na, thiosulfuric acid Na, thioglycolic acid Na, N-acetyltryptophan, and tryptophan) were each dissolved in a preparation buffer (0.9% NaCl containing 2 mM phosphate buffer, pH 7.4) to give a concentration of 1 or 10 mg/ml and thereafter filtered aseptically by passage through a 0.2-μm filter (Millex GV). A powder of the HA-MTX conjugate prepared in accordance with Production 1 was metered aseptically and dissolved in the filtered, photostabilizer-containing preparation buffer to give a concentration of 10 mg/mL; the thus prepared solutions were used as test samples. To prepare a control solution, the HA-MTX conjugate was dissolved in a photostabilizer-free preparation buffer at a concentration of 10 mg/mL.
The thus prepared solutions were put into glass vials not shielded from light and then irradiated with light.
The irradiation was so performed as to give an illuminance of 4000 Lux at 25° C. from a fluorescent lamp for use in a photostability test (TOSHIBA FL20S•D-EDL-D65) by means of a photostability tester (ETAC LABONIC LA110). After the lapse of specified periods (0 h, 25 h, 50 h, 100 h, 150 h, and 300 h) of irradiation, samples were taken and not only checked for gelation but also measured for the molecular weight of the HA-MTX conjugate and the percent conjugation of MTX (in the HA-MTX conjugate).
To evaluate the degree of gelation, the surface of each sample solution was pierced with a spatula and visually checked for the formation of an interface as the result of gelation. […] The apparatus used in gel filtration chromatography was equipped with OHpackSB-806HQ (Shodex) as a column, RI-71 (Shodex) as an […], and 875-UV (JASCO, detection wavelength: 304 nm) as a UV detector and analysis was conducted under the following conditions. Eluent: 50 mM sodium phosphate aqueous solution (pH 6.0); elution rate: 0.6 mL/min; column temperature: 40° C. By the above-described gel filtration chromatography, the elution times of the conjugate of interest were determined and the molecular weight of the same conjugate was determined from the relationship between the elution times and molecular weights of standard substances. As the standard substances, hyaluronic acid samples were prepared in varying molecular weights and their accurate values were calculated by the limiting viscosity method before it was used.

[2] = Photostability test with additional light-shielding film LUMICOOL 1905 (Example 6); format: physicochemical; details: for Molecular weight (×10^4), irradiation time 0 h / Molecular weight (×10^4), irradiation time 150 h / Molecular weight (×10^4), irradiation time 300 h / Percent Conjugation (%), irradiation time 0 h / Percent Conjugation (%), irradiation time 150 h / Percent Conjugation (%), irradiation time 300 h: vial wrapped with LUMICOOL 1905;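 as to all read-outs here: molecular weight and drug conjugation percentage of the test conjugate, both determined by the method given for the first production procedure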
[3] = added at 1 mg/mL, not shielded from light
[4] = additive 1 mg/ml, 4000 Lux, 25° C., not shielded from light
[5] = additive 10 mg/ml, 4000 Lux, 25° C., not shielded from light
[6] = with light-shielding film LUMICOOL 1905

Molecular weight (×10^4), irradiation time 0 h [1, 4]	Molecular weight (×10^4), irradiation time 25 h [1, 4]	Molecular weight (×10^4), irradiation time 50 h [1, 4]	Molecular weight (×10^4), irradiation time 100 h [1, 4]	Molecular weight (×10^4), irradiation time 150 h [1, 4]	Molecular weight (×10^4), irradiation time 300 h [1, 4]	Percent Conjugation (%) of MTX, irradiation time 0 h [1, 4] [%]	Percent Conjugation (%) of MTX, irradiation time 25 h [1, 4] [%]	Structure (SMILES)	Molecular weight (×10^4), irradiation time 0 h ([2]; additive 1 mg/mL)	Molecular weight (×10^4), irradiation time 150 h ([2]; additive 1 mg/mL)	Molecular weight (×10^4), irradiation time 300 h ([2]; additive 1 mg/mL)	Percent Conjugation (%), irradiation time 0 h ([2]; additive 1 mg/mL) [%]	Percent Conjugation (%), irradiation time 150 h ([2]; additive 1 mg/mL) [%]	Percent Conjugation (%), irradiation time 300 h ([2]; additive 1 mg/mL) [%]	Molecular weight (×10^4), irradiation time 0 h ([2]; additive 10 mg/mL)	Molecular weight (×10^4), irradiation time 150 h ([2]; additive 10 mg/mL)	Molecular weight (×10^4), irradiation time 300 h ([2]; additive 10 mg/mL)	Percent Conjugation (%), irradiation time 0 h ([2]; additive 10 mg/mL) [%]	Percent Conjugation (%), irradiation time 150 h ([2]; additive 10 mg/mL) [%]	Percent Conjugation (%), irradiation time 300 h ([2]; additive 10 mg/mL) [%]	other results
187 ×10^4	155 ×10^4	127 ×10^4	107 ×10^4	126 ×10^4	65 ×10^4	2.2	2.0	COC(=O)c1ccc(O)cc1 [Methyl paraben, methyl p-hydroxybenzoate]	187 ×10^4	184 ×10^4	179 ×10^4	2.2	2.2	2.2							suppressing drops in the molecular weight and percent conjugation [1, 3]: could suppress drops in the molecular weight and percent conjugation for irradiation periods that did not exceed about 100 hours; Percent Conjugation (%) of MTX, irradiation time 50 h [1, 4]: 2.1%; Percent Conjugation (%) of MTX, irradiation time 100 h [1, 4]: 2.0%; Percent Conjugation (%) of MTX, irradiation time 150 h [1, 4]: 2.1%; Percent Conjugation (%) of MTX, irradiation time 300 h [1, 4]: 1.9%; stabilizing effects (suppressing effects on the drop in molecular weight and the drop in percent conjugation of MTX) [2]: comparable to those obtained in the case where complete shielding of light was ensured by aluminum foil
178 ×10^4	164 ×10^4	166 ×10^4	138 ×10^4	128 ×10^4	78 ×10^4	2.2	2.2	CC(=O)N[C@@H](Cc1c[nH]c2ccccc12)C(=O)O [N-acetyltryptophan]	178 ×10^4	172 ×10^4	136 ×10^4	2.2	2.3	2.2	190 ×10^4	186 ×10^4	187 ×10^4	2.2	2.2	2.2	suppressing drops in the molecular weight and percent conjugation [1, 3]: could suppress drops in the molecular weight and percent conjugation for irradiation periods that did not exceed about 100 hours; Percent Conjugation (%) of MTX, irradiation time 50 h [1, 4]: 2.3%; Percent Conjugation (%) of MTX, irradiation time 100 h [1, 4]: 2.2%; Percent Conjugation (%) of MTX, irradiation time 150 h [1, 4]: 2.1%; Percent Conjugation (%) of MTX, irradiation time 300 h [1, 4]: 2.1%; Molecular weight (×10^4), irradiation time 0 h [1, 5]: 190 ×10^4; Molecular weight (×10^4), irradiation time 25 h [1, 5]: 180 ×10^4; Molecular weight (×10^4), irradiation time 50 h [1, 5]: 175 ×10^4; Molecular weight (×10^4), irradiation time 100 h [1, 5]: 146 ×10^4; Molecular weight (×10^4), irradiation time 150 h [1, 5]: 135 ×10^4; Molecular weight (×10^4), irradiation time 300 h [1, 5]: 97 ×10^4; Percent Conjugation (%) of MTX, irradiation time 0 h [1, 5]: 2.2%; Percent Conjugation (%) of MTX, irradiation time 25 h [1, 5]: 2.2%; Percent Conjugation (%) of MTX, irradiation time 50 h [1, 5]: 2.2%; Percent Conjugation (%) of MTX, irradiation time 100 h [1, 5]: 1.9%; Percent Conjugation (%) of MTX, irradiation time 150 h [1, 5]: 2.1%; Percent Conjugation (%) of MTX, irradiation time 300 h [1, 5]: 2.0%
								O=C([O-])c1ccccc1O.[Na+] [Na salicylate, sodium salicylate]	186 ×10^4	184 ×10^4	163 ×10^4	2.2	2.1	2.2	185 ×10^4	190 ×10^4	179 ×10^4	2.2	2.2	2.1	Molecular weight (×10^4), irradiation time 0 h [1]: 185 ×10^4 and 186 ×10^4; Molecular weight (×10^4), irradiation time 25 h [1]: 176 ×10^4 and 172 ×10^4; Percent Conjugation (%) of MTX, irradiation time 0 h [1]: 2.2%; Percent Conjugation (%) of MTX, irradiation time 25 h [1]: 2.2%; Percent Conjugation (%) of MTX, irradiation time 50 h [1]: 2.1%; Percent Conjugation (%) of MTX, irradiation time 100 h [1]: 2.1% and 1.9%; Percent Conjugation (%) of MTX, irradiation time 150 h [1]: 2.2% and 1.8%; Percent Conjugation (%) of MTX, irradiation time 300 h [1]: 2.2% and 2.0%; suppressing drops in the molecular weight and percent conjugation [1]: considerably effective in suppressing drops in the molecular weight and percent conjugation even when the time of irradiation exceeded 100 hours; stabilizing effects (suppressing effects on the drop in molecular weight and the drop in percent conjugation of MTX) [2, 6]: comparable to those obtained in the case where complete shielding of light was ensured by aluminum foil
								O=S([O-])([O-])=S.[Na+].[Na+] [Na thiosulfate, sodium thiosulfate]	181 ×10^4	186 ×10^4	180 ×10^4	2.3	2.2	2.2	190 ×10^4	188 ×10^4	186 ×10^4	2.1	2.2	2.1	Molecular weight (×10^4), irradiation time 0 h [1]: 190 ×10^4 and 181 ×10^4; Molecular weight (×10^4), irradiation time 25 h [1]: 190 ×10^4 and 145 ×10^4; Percent Conjugation (%) of MTX, irradiation time 0 h [1]: 2.1% and 2.3%; Percent Conjugation (%) of MTX, irradiation time 25 h [1]: 2.2% and 2.1%; Percent Conjugation (%) of MTX, irradiation time 50 h [1]: 2.3% and 1.5%; Percent Conjugation (%) of MTX, irradiation time 100 h [1]: 2.1% and 0.8%; Percent Conjugation (%) of MTX, irradiation time 150 h [1]: 2.2% and 0.6%; Percent Conjugation (%) of MTX, irradiation time 300 h [1]: 2.1% and 0.4%; suppressing drops in the molecular weight and percent conjugation [1]: considerably effective in suppressing drops in the molecular weight and percent conjugation even when the time of irradiation exceeded 100 hours; stabilizing effects (suppressing effects on the drop in molecular weight and the drop in percent conjugation of MTX) [2, 6]: comparable to those obtained in the case where complete shielding of light was ensured by aluminum foil

Structure (SMILES)	Molecular weight (×10^4), irradiation time 0 h [1, 4]	Molecular weight (×10^4), irradiation time 25 h [1, 4]	Molecular weight (×10^4), irradiation time 50 h [1, 4]	Molecular weight (×10^4), irradiation time 100 h [1, 4]	Molecular weight (×10^4), irradiation time 150 h [1, 4]	Molecular weight (×10^4), irradiation time 300 h [1, 4]	Percent Conjugation (%) of MTX, irradiation time 0 h [1, 4] [%]	Percent Conjugation (%) of MTX, irradiation time 25 h [1, 4] [%]	Molecular weight (×10^4), irradiation time 0 h ([2]; additive 1 mg/mL)	Molecular weight (×10^4), irradiation time 150 h ([2]; additive 1 mg/mL)	Molecular weight (×10^4), irradiation time 300 h ([2]; additive 1 mg/mL)	Percent Conjugation (%), irradiation time 0 h ([2]; additive 1 mg/mL) [%]	Percent Conjugation (%), irradiation time 150 h ([2]; additive 1 mg/mL) [%]	Percent Conjugation (%), irradiation time 300 h ([2]; additive 1 mg/mL) [%]	Molecular weight (×10^4), irradiation time 0 h ([2]; additive 10 mg/mL)	Molecular weight (×10^4), irradiation time 150 h ([2]; additive 10 mg/mL)	Molecular weight (×10^4), irradiation time 300 h ([2]; additive 10 mg/mL)	Percent Conjugation (%), irradiation time 0 h ([2]; additive 10 mg/mL) [%]	Percent Conjugation (%), irradiation time 150 h ([2]; additive 10 mg/mL) [%]	Percent Conjugation (%), irradiation time 300 h ([2]; additive 10 mg/mL) [%]	other results
O=C([O-])CS.[Na+] [Na thioglycolate, sodium thioglycolate]	163 ×10^4	136 ×10^4	97 ×10^4	8 ×10^4	5 ×10^4	2 ×10^4	2.1	2.2	163 ×10^4	123 ×10^4	44 ×10^4	2.1	2.2	2.2	181 ×10^4	170 ×10^4	157 ×10^4	2.1	2.1	2.2	suppressing drops in the molecular weight and percent conjugation ([1]; added at 10 mg/ml, not shielded from light): considerably effective in suppressing drops in the molecular weight and percent conjugation even when the time of irradiation exceeded 100 hours; Percent Conjugation (%) of MTX, irradiation time 50 h [1, 4]: 2.2%; Percent Conjugation (%) of MTX, irradiation time 100 h [1, 4]: 1.4%; Percent Conjugation (%) of MTX, irradiation time 150 h [1, 4]: 1.0%; Percent Conjugation (%) of MTX, irradiation time 300 h [1, 4]: 0.4%; Molecular weight (×10^4), irradiation time 0 h [1, 5]: 181 ×10^4; Molecular weight (×10^4), irradiation time 25 h [1, 5]: 166 ×10^4; Molecular weight (×10^4), irradiation time 50 h [1, 5]: 169 ×10^4; Molecular weight (×10^4), irradiation time 100 h [1, 5]: 163 ×10^4; Molecular weight (×10^4), irradiation time 150 h [1, 5]: 154 ×10^4; Molecular weight (×10^4), irradiation time 300 h [1, 5]: 5 ×10^4; Percent Conjugation (%) of MTX, irradiation time 0 h [1, 5]: 2.1%; Percent Conjugation (%) of MTX, irradiation time 25 h [1, 5]: 2.2%; Percent Conjugation (%) of MTX, irradiation time 50 h [1, 5]: 2.3%; Percent Conjugation (%) of MTX, irradiation time 100 h [1, 5]: 2.0%; Percent Conjugation (%) of MTX, irradiation time 150 h [1, 5]: 2.2%; Percent Conjugation (%) of MTX, irradiation time 300 h [1, 5]: 1.4%
